Assay results as given in ChEMBL document CHEMBL3885861, “Open TG-GATES”.

Species: Rattus norvegicus
Experiment: Open TG-GATES - Regimen: Daily Repeat
Type: toxicity, organism-based, Sprague-Dawley
Set-up: regimen Daily Repeat, gender Male, age 6 weeks
Conditions: in vivo, po, 300 mg/kg, route gavage, dose level Middle; for APTT / Bas / Eos / Fbg / Hb / Ht / Lym / MCH / MCHC / MCV / Mono / Neu / PT / Plat / RBC / Ret / WBC: tissue Blood; for KIDNEY_L / KIDNEY_R / KIDNEY_TOTAL: tissue Kidney; for LIVER: tissue Liver; for A/G / ALP / ALT / AST / BUN / CRE / Ca / Cl / DBIL / GLC / IP / K / LDH / Na / PL / RALB / TBIL / TC / TG / TP / gamma-GTP: tissue Plasma

CCCCNC(=O)NS(=O)(=O)c1ccc(C)cc1 [TOLBUTAMIDE]
TERMINAL_BW (72 h, time 3 day): 233.2 g
APTT (72 h, time 3 day): 17 s
Bas (72 h, time 3 day): 0%
Eos (72 h, time 3 day): 1%
Fbg (72 h, time 3 day): 287.2 mg/dL
Hb (72 h, time 3 day): 13.7 g/dL
Ht (72 h, time 3 day): 41.8%
Lym (72 h, time 3 day): 80%
MCH (72 h, time 3 day): 20.8 pg
MCHC (72 h, time 3 day): 32.8%
MCV (72 h, time 3 day): 63.2 fL
Mono (72 h, time 3 day): 2.6%
Neu (72 h, time 3 day): 15.6%
PT (72 h, time 3 day): 13 s
Plat (72 h, time 3 day): 122.8 x10_4/uL
RBC (72 h, time 3 day): 661 x10_4/ul
Ret (72 h, time 3 day): 6.3%
WBC (72 h, time 3 day): 108 x10_2/uL
KIDNEY_L (72 h, time 3 day): 1 g
KIDNEY_R (72 h, time 3 day): 1 g
KIDNEY_TOTAL (72 h, time 3 day): 2 g
LIVER (72 h, time 3 day): 10.8 g
A/G (72 h, time 3 day): 0.9
ALP (72 h, time 3 day): 1683.8 IU/L
ALT (72 h, time 3 day): 49.4 IU/L
AST (72 h, time 3 day): 70.2 IU/L
BUN (72 h, time 3 day): 13.2 mg/dL
CRE (72 h, time 3 day): 0.2 mg/dL
Ca (72 h, time 3 day): 11.1 mg/dL
Cl (72 h, time 3 day): 105 meq/L
DBIL (72 h, time 3 day): 0.01 mg/dL
GLC (72 h, time 3 day): 176.6 mg/dL
IP (72 h, time 3 day): 8.2 mg/dL
K (72 h, time 3 day): 4 meq/L
LDH (72 h, time 3 day): 69.8 IU/L
Na (72 h, time 3 day): 142.4 meq/L
PL (72 h, time 3 day): 151 mg/dL
RALB (72 h, time 3 day): 2.6 g/dL
TBIL (72 h, time 3 day): 0.062 mg/dL
TC (72 h, time 3 day): 79.2 mg/dL
TG (72 h, time 3 day): 86.4 mg/dL
TP (72 h, time 3 day): 5.5 g/dL
gamma-GTP (72 h, time 3 day): 1 IU/L
TERMINAL_BW ([…], time 7 day): 265.6 g
TERMINAL_BW ([…], time 14 day): 327.4 g
TERMINAL_BW ([…], time 28 day): 387.4 g
APTT ([…], time 7 day): 17.8 s
Bas ([…], time 7 day): 0.4%
Eos ([…], time 7 day): 1%
Fbg ([…], time 7 day): 287 mg/dL
Hb ([…], time 7 day): 14 g/dL
Ht ([…], time 7 day): 42.1%
Lym ([…], time 7 day): 81.6%
MCH ([…], time 7 day): 20.9 pg
MCHC ([…], time 7 day): 33.3%
MCV ([…], time 7 day): 62.5 fL
Mono ([…], time 7 day): 2.2%
Neu ([…], time 7 day): 14.6%
PT ([…], time 7 day): 12.7 s
Plat ([…], time 7 day): 118.8 x10_4/uL
RBC ([…], time 7 day): 674.4 x10_4/ul
Ret ([…], time 7 day): 5.3%
WBC ([…], time 7 day): 114.8 x10_2/uL
APTT ([…], time 14 day): 18 s
Bas ([…], time 14 day): 0.4%
Eos ([…], time 14 day): 1%
Fbg ([…], time 14 day): 290.4 mg/dL
Hb ([…], time 14 day): 14.6 g/dL
Ht ([…], time 14 day): 44.4%
Lym ([…], time 14 day): 78.2%
MCH ([…], time 14 day): 19.6 pg
MCHC ([…], time 14 day): 32.8%
MCV ([…], time 14 day): 59.8 fL
Mono ([…], time 14 day): 1.8%
Neu ([…], time 14 day): 18.4%
PT ([…], time 14 day): 12.8 s
Plat ([…], time 14 day): 120.3 x10_4/uL
RBC ([…], time 14 day): 743.4 x10_4/ul
Ret ([…], time 14 day): 4.3%
WBC ([…], time 14 day): 98.4 x10_2/uL
APTT ([…], time 28 day): 20 s
Bas ([…], time 28 day): 0.6%
Eos ([…], time 28 day): 1%
Fbg ([…], time 28 day): 266.6 mg/dL
Hb ([…], time 28 day): 15.4 g/dL
Ht ([…], time 28 day): 45.4%
Lym ([…], time 28 day): 81.4%
MCH ([…], time 28 day): 18.7 pg
MCHC ([…], time 28 day): 34%
MCV ([…], time 28 day): 55.2 fL
Mono ([…], time 28 day): 2.4%
Neu ([…], time 28 day): 13.8%
PT ([…], time 28 day): 13.4 s
Plat ([…], time 28 day): 102.9 x10_4/uL
RBC ([…], time 28 day): 823.4 x10_4/ul
Ret ([…], time 28 day): 2.2%
WBC ([…], time 28 day): 134 x10_2/uL
KIDNEY_L ([…], time 7 day): 1.1 g
KIDNEY_R ([…], time 7 day): 1.1 g
KIDNEY_TOTAL ([…], time 7 day): 2.2 g
KIDNEY_L ([…], time 14 day): 1.3 g
KIDNEY_R ([…], time 14 day): 1.3 g
KIDNEY_TOTAL ([…], time 14 day): 2.5 g
KIDNEY_L ([…], time 28 day): 1.4 g
KIDNEY_R ([…], time 28 day): 1.4 g
KIDNEY_TOTAL ([…], time 28 day): 2.8 g
LIVER ([…], time 7 day): 12.4 g
LIVER ([…], time 14 day): 14.8 g
LIVER ([…], time 28 day): 15.5 g
A/G ([…], time 7 day): 0.8
ALP ([…], time 7 day): 1624 IU/L
ALT ([…], time 7 day): 42 IU/L
AST ([…], time 7 day): 65.2 IU/L
BUN ([…], time 7 day): 16.6 mg/dL
CRE ([…], time 7 day): 0.2 mg/dL
Ca ([…], time 7 day): 10.8 mg/dL
Cl ([…], time 7 day): 103.8 meq/L
DBIL ([…], time 7 day): 0.008 mg/dL
GLC ([…], time 7 day): 204.8 mg/dL
IP ([…], time 7 day): 7.5 mg/dL
K ([…], time 7 day): 4.1 meq/L
LDH ([…], time 7 day): 57.4 IU/L
Na ([…], time 7 day): 141 meq/L
PL ([…], time 7 day): 161 mg/dL
RALB ([…], time 7 day): 2.5 g/dL
TBIL ([…], time 7 day): 0.052 mg/dL
TC ([…], time 7 day): 76.4 mg/dL
TG ([…], time 7 day): 135.8 mg/dL
TP ([…], time 7 day): 5.6 g/dL
gamma-GTP ([…], time 7 day): 1 IU/L
A/G ([…], time 14 day): 0.8
ALP ([…], time 14 day): 1281 IU/L
ALT ([…], time 14 day): 41.4 IU/L
AST ([…], time 14 day): 69 IU/L
BUN ([…], time 14 day): 16 mg/dL
CRE ([…], time 14 day): 0.2 mg/dL
Ca ([…], time 14 day): 10.9 mg/dL
Cl ([…], time 14 day): 104.2 meq/L
DBIL ([…], time 14 day): 0.012 mg/dL
GLC ([…], time 14 day): 193.4 mg/dL
IP ([…], time 14 day): 6.9 mg/dL
K ([…], time 14 day): 4 meq/L
LDH ([…], time 14 day): 55.4 IU/L
Na ([…], time 14 day): 142.2 meq/L
PL ([…], time 14 day): 158.6 mg/dL
RALB ([…], time 14 day): 2.7 g/dL
TBIL ([…], time 14 day): 0.06 mg/dL
TC ([…], time 14 day): 76.4 mg/dL
TG ([…], time 14 day): 127.2 mg/dL
TP ([…], time 14 day): 5.8 g/dL
gamma-GTP ([…], time 14 day): 1 IU/L
A/G ([…], time 28 day): 0.8
ALP ([…], time 28 day): 1057.2 IU/L
ALT ([…], time 28 day): 39.8 IU/L
AST ([…], time 28 day): 65.6 IU/L
BUN ([…], time 28 day): 16 mg/dL
CRE ([…], time 28 day): 0.2 mg/dL
Ca ([…], time 28 day): 10.7 mg/dL
Cl ([…], time 28 day): 104.2 meq/L
DBIL ([…], time 28 day): 0.01 mg/dL
GLC ([…], time 28 day): 190 mg/dL
IP ([…], time 28 day): 6.7 mg/dL
K ([…], time 28 day): 3.9 meq/L
LDH ([…], time 28 day): 55 IU/L
Na ([…], time 28 day): 142.8 meq/L
PL ([…], time 28 day): 157.2 mg/dL
RALB ([…], time 28 day): 2.8 g/dL
TBIL ([…], time 28 day): 0.06 mg/dL
TC ([…], time 28 day): 74.6 mg/dL
TG ([…], time 28 day): 152.2 mg/dL
TP ([…], time 28 day): 6.1 g/dL
gamma-GTP ([…], time 28 day): 1 IU/L
